Reference: patent publication US8592443B2, “Use of 4 cyclopropylmethoxy-N-(3,5 dichloro-1 oxido-pyridin-4 yl)-5-(methoxy)pyridine-2-carboxamide for the treatment of spinal cord traumas” (Sanofi, priority 2007, dated 2013)

Tests used:
ferret = test: Evaluation of emetic effects in the ferret; type: in vivo; conditions: observed up to 6 hours after administration; for Emetic effects (vomiting): ferrets
Method: The emetic capacity of 4-cyclopropylmethoxy-N-(3,5-dichloro-1-oxidopyridin-4-yl)-5-(methoxy)pyridine-2-carboxamide was evaluated in the ferret. Two groups of ferrets were used, the first being given the carrier (PEG 200) and the second being given 4-cyclopropyl-methoxy-N-(3,5-dichloro-1-oxidopyridin-4-yl)-5-(methoxy)pyridine-2-carboxamide in solution in the carrier (PEG 200), by oral gavage, at doses of 0.05 mg/kg and 0.1 mg/kg. The animals were observed continually for the 2 hours following administration and then every hour up to 6 hours after administration. The clinical signs (in particular retching and vomiting) were noted.
The emetic capacity of […] was evaluated in the ferret. Two groups of ferrets were used, the first receiving the carrier (PEG200) and the second receiving […] in solution in the carrier (PEG200), by oral gavage, at doses of 0.05 mg/kg and 0.1 mg/kg. The animals were observed continually for the 2 hours following administration and then every hour up to 6 hours after administration. The clinical signs were noted.

[1] = system: model of spinal trauma in the mouse; test: Beam balance test in a model of spinal trauma in the mouse; type: in vivo; conditions: for Travel time (% deficiency): 0.01 mg/kg po at +4 h then daily; for Travel time (% deficiency) / Travel time (% motor function deficiency): 100% = trauma + carrier; for Balance beam test result (time to reach the opposite end of the beam): 0.01 mg/kg orally 4 h after lesion then daily, OF1 mice; for Travel time (% motor function deficiency): 0.03 mg/kg po at +4 h and +6 h then daily
Method: The effects of 4-cyclopropylmethoxy-N-(3,5-dichloro-1-oxidopyridin-4-yl)-5-(methoxy)pyridine-2-carboxamide used according to the invention were evaluated in a model of spinal trauma in the mouse using the beam balance test (P. Barnéoud, NeuroReport 1997, 8, 2861-2865).
The Beam Balance test consists in placing the mouse at the end of a horizontal beam 30 cm long and 1.5 cm wide, raised 20 cm above the ground. The time required for the mouse to reach the opposite end of the beam is measured. The test is stopped after 12 seconds.
[…] female OF1 mice (Iffa Credo Lyon, France) weighing 12 to 14 g are placed in experimental cages (32×21×14 cm) provided with an endless supply of food and water, at the controlled temperature of 22±1° C.
The mice are subjected to a pre-learning phase which allows them to become familiar with the evaluation test and allows them to reach an optimal and identical level of performance.
The animals are subsequently divided up into three groups, and then a trauma is induced in a controlled manner in two of the three groups of mice before the beginning of the test phase.
This trauma consists of a lesion of the spinal cord located at the level of the thoracic vertebra Th8. The lesion is generated by 3 successive cycles of freezing-thawing by applying liquid nitrogen.
The functional consequences of the trauma are then measured at days 2, 7, 14 and 21 and also at day 28.
The following groups were formed: • Group 1 (no trauma) is composed of control animals which are not subjected to any trauma. • Group 2 (trauma alone) is composed of traumatized animals to which one dose per day of carrier (methyl-cellulose (MC) (0.6%) +tween-80 (0.5%) in water) is administered. • Group 3 (trauma+active ingredient 0.01 mg/kg at +4 hours) receives a solution containing 4-cyclopropylmethoxy-N-(3,5-dichloro-1-oxidopyridin-4-yl)-5-(methoxy)pyridine-2-carboxamide (0.01 mg/kg) in the carrier (MC (0.6%)+tween-80 (0.5%) in water), orally, 4 hours after the lesion, and then daily, orally, for 4 weeks after the trauma.
An experiment similar to that of Example 1 was carried out by administering ((4R)-4-[3-(cyclopentyloxy)-4-methoxyphenyl]pyrrolidine-2-one) to 34-week-old OF1 mice (Charles River, France) weighing 12 to 14 g, in the treatment of spinal cord traumas.
The mice were tested in the beam balance test, according to operating conditions identical to those described above.
The following groups were formed: • Group A (no trauma) is composed of control animals which are not subjected to any trauma. • Group B (trauma alone) is composed of traumatized animals to which one dose per day of carrier (2% PEG 200) is administered. • Group C (trauma+active ingredient 0.03 mg/kg at +4 hours) receives a solution containing (R)-(−)-Rolipram (0.03 mg/kg) in the carrier (2% PEG 200), orally, 4 hours and 6 hours after the lesion, and then daily, orally, for 4 weeks after the trauma.
The results obtained for each group of mice are expressed as percentage (%) deficiency of motor functions in the traumatized mice compared with the non-traumatized mice:
To do this, the difference in time taken between the group of mice tested to which (R)-(−)-Rolipram was administered (group C) and the group of non-traumatized mice (group A) is measured and expressed as a percentage relative to the difference in time taken between the traumatized mice to which one dose per day of carrier was administered (group B) and the time taken by the non-traumatized mice (group A). This ratio therefore gives the percentage deficiency in motor functions of the traumatized mice compared with the non-traumatized mice.
This calculation of the percentage deficiency of the mice tested is performed according to the following formula: % deficiency of group (c)=[(mean of the travel time of group C)−(mean of the travel time of group A)]/[(mean of the travel time of group B)−(mean of the travel time of group A)]

Q: For `COc1cnc(C(=O)Nc2c(Cl)c[n+]([O-])cc2Cl)cc1OCC1CC1` [4-cyclopropylmethoxy-N-(3,5-dichloro-1-oxidopyridin-4-yl)-5-(methoxy)pyridine-2-carboxamide], which “Emetic effects (retching and vomiting)” value (ferret; 0.1 mg/kg by oral gavage in PEG 200, 5 ferrets) is on record?
A: Its value is “no retching or vomiting”.

Q: And the “Degree of motor function deficiency compared with (R)-(−)-Rolipram” value ([1]; 0.01 mg/kg po versus (R)-(−)-Rolipram 0.03 mg/kg po, traumatized mice)?
A: Its value is “less than that of the animals treated with (R)-(−)-Rolipram”.

Q: What about the “Travel time (% deficiency)” value ([1]; D + 2, 0% = no trauma) of the same compound?
A: Its value is 84%.

Q: What about the “Balance beam test result (time to reach the opposite end of the beam)” value (from here on “Balance beam test result”) ([1]; D + 2 after trauma, test stopped after 12 seconds) of the same compound?
A: Its value is 10.71 s.

Q: What about the “Travel time (% deficiency)” value ([1]; D + 7, 0% = no trauma) of the same compound?
A: The value was 72%.

Q: And the “Balance beam test result” value ([1]; D + 7 after trauma)?
A: The value was 8.67 s.

Q: What about the “Travel time (% deficiency)” value ([1]; D + 14, 0% = no trauma) of the same compound?
A: The value was 49%.

Q: What about the “Balance beam test result” value ([1]; D + 14 after trauma) of the same compound?
A: Its value is 6.35 s.

Q: And the “Travel time (% deficiency)” value ([1]; D + 21, 0% = no trauma)?
A: The value was 60%.

Q: What about the “Balance beam test result” value ([1]; D + 21 after trauma) of the same compound?
A: The value was 6.17 s.

Q: What about the “Travel time (% deficiency)” value ([1]; D + 28, 0% = no trauma) of the same compound?
A: The value was 44%.

Q: And the “Balance beam test result” value ([1]; D + 28 after trauma)?
A: The value was 5.18 s.

Q: And the “Travel time (% deficiency)” value ([1]; Mean of D + 2 to D + 28)?
A: Its value is 62%.

Q: And the “Re-establishment of motor functions versus non-treated traumatized animals” value ([1]; traumatized mice, curative administration (group 3 vs group 2))?
A: Its value is “better re-establishment in terms of motor functions”.

Q: How did the “Emetic effects (vomiting)” value (ferret; 0.05 mg/kg by oral gavage in PEG200) turn out when `COc1ccc([C@@H]2CNC(=O)C2)cc1OC1CCCC1` [(R)-(−)-Rolipram, ((4R)-4-[3-(cyclopentyloxy)-4-methoxyphenyl]pyrrolidine-2-one), reference compound] was run?
A: The value was “induces vomiting”.

Q: And the “Emetic effects (vomiting)” value (ferret; 0.1 mg/kg by oral gavage in PEG200)?
A: The value was “induces vomiting”.

Q: What about the “Travel time (% motor function deficiency)” value ([1]; D + 2, 0% = no trauma) of the same compound?
A: Its value is 110%.

Q: What about the “Travel time (% motor function deficiency)” value ([1]; D + 7, 0% = no trauma) of the same compound?
A: The value was 67%.

Q: And the “Travel time (% motor function deficiency)” value ([1]; D + 14, 0% = no trauma)?
A: The value was 48%.

Q: What about the “Travel time (% motor function deficiency)” value ([1]; D + 21, 0% = no trauma) of the same compound?
A: The value was 122%.

Q: What about the “Travel time (% motor function deficiency)” value ([1]; D + 28, 0% = no trauma) of the same compound?
A: Its value is 108%.

Q: And the “Travel time (% motor function deficiency)” value ([1]; Mean of D + 2 to D + 28)?
A: The value was 91%.
